According to PubChem BioAssay (NCI):
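Five compound concentrations were applied to cells in 96-well plates for 48 hours; endpoints were derived by simple linear interpolation of the resulting dose-response curve. TGI: concentration producing complete growth inhibition.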

Tests used:
Assay in all cases: growth of human tumour cells (NCI), 48 h
OVCAR-5 ovarian = test system: OVCAR-5 ovarian
786-0 renal = test system: 786-0 renal
SK-OV-3 ovarian = test system: SK-OV-3 ovarian
HL-60(TB) leukemia = test system: HL-60(TB) leukemia
SW-620 colon = test system: SW-620 colon
SK-MEL-5 melanoma = test system: SK-MEL-5 melanoma
K-562 leukemia = test system: K-562 leukemia
SF-295 CNS = test system: SF-295 CNS
OVCAR-4 ovarian = test system: OVCAR-4 ovarian
HOP-62 NSCLC = test system: HOP-62 NSCLC
OVCAR-8 ovarian = test system: OVCAR-8 ovarian
NCI-H460 lung = test system: NCI-H460 lung
HOP-92 NSCLC = test system: HOP-92 NSCLC
DMS 273 small cell lung = test system: DMS 273 small cell lung
UACC-257 melanoma = test system: UACC-257 melanoma
KM20L2 colon = test system: KM20L2 colon
DLD-1 colon = test system: DLD-1 colon
EKVX NSCLC = test system: EKVX NSCLC
KM12 colon = test system: KM12 colon
NCI-H522 lung = test system: NCI-H522 lung
IGROV1 ovarian = test system: IGROV1 ovarian
OVCAR-3 ovarian = test system: OVCAR-3 ovarian
TK-10 renal = test system: TK-10 renal
SK-MEL-28 melanoma = test system: SK-MEL-28 melanoma
SR leukemia = test system: SR leukemia
UO-31 renal = test system: UO-31 renal
CCRF-CEM leukemia = test system: CCRF-CEM leukemia
HCT-116 colon = test system: HCT-116 colon
HT29 colon = test system: HT29 colon
SF-268 CNS = test system: SF-268 CNS
M19-MEL melanoma = test system: M19-MEL melanoma
M14 melanoma = test system: M14 melanoma
NCI-H23 lung = test system: NCI-H23 lung
SN12C renal = test system: SN12C renal
SK-MEL-2 melanoma = test system: SK-MEL-2 melanoma
HOP-18 NSCLC = test system: HOP-18 NSCLC
LXFL 529 NSCLC = test system: LXFL 529 NSCLC
SNB-78 CNS = test system: SNB-78 CNS
MOLT-4 leukemia = test system: MOLT-4 leukemia
UACC-62 melanoma = test system: UACC-62 melanoma
NCI-H226 lung = test system: NCI-H226 lung
HCT-15 colon = test system: HCT-15 colon
HCC-2998 colon = test system: HCC-2998 colon
SNB-75 CNS = test system: SNB-75 CNS
A549 NSCLC = test system: A549 NSCLC
SNB-19 CNS = test system: SNB-19 CNS
U251 CNS = test system: U251 CNS
CAKI-1 renal = test system: CAKI-1 renal
ACHN renal = test system: ACHN renal
DMS 114 small cell lung = test system: DMS 114 small cell lung
MALME-3M melanoma = test system: MALME-3M melanoma
COLO 205 colon = test system: COLO 205 colon
SF-539 CNS = test system: SF-539 CNS
A498 renal = test system: A498 renal
LOX IMVI melanoma = test system: LOX IMVI melanoma
RPMI-8226 leukemia = test system: RPMI-8226 leukemia
RXF 393 renal = test system: RXF 393 renal

Measured: TGI

Cc1ccc2nc3cc(C)c(=O)cc-3sc2c1
84.9 µM: SNB-75 CNS
30.7 µM: M19-MEL melanoma
64.7 µM: HL-60(TB) leukemia
45.2 µM: CCRF-CEM leukemia
82.8 µM: UACC-62 melanoma
not listed: A498 renal | LOX IMVI melanoma | RPMI-8226 leukemia | RXF 393 renal
> 100 µM: all other assays above

OC12c3ccccc3C1CCCCCCCCCC21OCCO1 (stereo not given)
not listed: HL-60(TB) leukemia | HOP-92 NSCLC | DLD-1 colon | EKVX NSCLC | SR leukemia
> 100 µM: all other assays above
